Reference: US20230312601A1, “THIAZOLO[5,4-B]PYRIDINE MALT-1 INHIBITORS” (AbbVie Inc., priority 2022, published 2023)

How the values were obtained:
[1] = test system: CYP3A4 mRNA; experiment: CYP3A4 Induction Assay (qPCR, human hepatocytes); format: in vitro ADME; details: cryopreserved human hepatocytes (plated), 10 μM compound, mRNA fold over vehicle (0.1% DMSO)
Experimental: (§1) CYP induction by compounds of the Examples was evaluated in vitro by determining the expression levels of CYP 3A4 mRNA using the qPCR (quantitative polymerase chain reaction) assay. On day one, cryopreserved human hepatocytes were thawed in prewarmed (37° C.) thawing medium (cryopreserved hepatocyte recovery medium, Gibco™ CM 7000; Thermo Fisher Scientific), centrifuged (1000 g for 10 minutes) and resuspended in plating medium (Gibco™ CM3000—Williams Medium E supplemented with hepatocytes plating supplement pak-serum containing; Thermo Fisher Scientific). Cells were counted by trypan blue exclusion using a hemocytometer and adjusted to a cell density of […]. Thereafter, […] of cell suspension was aliquoted per well in a 96-well plate, resulting in 60,000 cells/well. Plates were shaken in the north-south and east-west direction during plating. Plated cells were incubated at 37° C/5% CO2 in a humidified cell culture incubator for 4-6 hours. During this time, incubation medium (Gibco™ CM4000, cell maintenance supplement pack; Thermo Fisher Scientific) was mixed with Gibco™ Geltrex™ (Thermo Fischer Scientific) at the appropriate GeltrexTM protein concentration. Following recovery, medium was removed from cells and replaced with freshly prepared incubation medium. Cells were incubated overnight in a cell culture incubator (37° C./5% CO2).
(§2) The next day the incubation medium was prepared by combining the hepatocyte maintenance supplement pack with Williams Medium E. The medium was warmed to 37° C. 1000× dimethyl sulfoxide compound stocks of the compounds of the Examples were prepared to the desired concentrations. 10 mM compound stocks in dimethyl sulfoxide were diluted (1 μL to 1 mL CM4000; final concentration=10 μM). Overlay medium was aspirated and […] dose solution added to the desired labeled 96 well plate. Cells were then dosed with compound (10 μM) and prototypical induces at the targeted concentrations either 50 i.tM for omeprazole (Sigma 0104/lotBCBF-2161V) or 10 i.tM for rifampicin (Sigma R3501/lot 011M1159V). A negative control, probenecid, was dosed at 10 i.tM (Sigma P8761/lot 013K0148).
(§3) On day 3, RNA isolation was performed. All surfaces were cleaned using RNase RNAy. Total RNA was isolated using MagMAX Express 96 RNA Isolation System (Life Technologies, AM1830). Briefly, hepatocytes were washed once with 1X PBS (phosphate buffered saline). 145 μL of RNA Lysis Buffer was added to each well and each well was mixed by pipetting several times. Lysate was then transferred to a well of a 96 well Binding Plate. Samples were then mixed with 20 μL magnetic beads coming from the kit. RNA bound to beads was then captured by the magnetic tip manifold and beads were washed with the wash solution. Samples were treated with TURBOTmDNase. After TURBOTmDNase treatment, RNA was rebound to beads and washed with the provided wash buffer an additional two times. Beads are then dried, and RNA was eluted with 50 μL elution buffer. The eluted mRNA was transferred from the wells to RNase-free sealable microtiter plates and stored at -80° C. until use.
(§4) Following mRNA isolation, reverse transcription (RT) reactions were performed using TaqmanTm Reverse Transcription Reagents (ThermoFisher Scientific). RT master mix was prepared by mixing 2.5 μL 10× RT buffer, 5.5 μL 25 mM MgCl2, 5μL deoxyNTP mixture, 1.25 50 mM random hexamers, 0.5 μL 2× RNAse inhibitor, 0.625 μL multiscript RTase (50U/μL) and 0.625 μL water. An aliquot of RT mix (16 μL) and an aliquot of mRNA sample (9 μL) was added to each well of a 96-well plate. The SimpliAmpTM Thermal cycler PCR System VIIA7 from Applied Biosystems was used for reverse transcription under the following conditions: segment 1: 25° C. for 10 minutes; segment 2: 45° C. for 45 minutes; segment 3: 95° C. for 5 minutes; and segment 4: 4° C. hold; with 1 cycle for each segment. […]

[2] = test system: CYP 3A4 mRNA; experiment: CYP3A4 Induction Assay (qPCR, human hepatocytes); format: in vitro ADME; details: 10 μM compound, relative to rifampicin 10 μM
Experimental: as §1, §2, §3, §4

[3] = test system: OCI-LY3 IL6; experiment: MALT-1 Cell IL-6 AlphaLISA Assay; format: cell-based; details: Homo sapiens; OCI-LY3 cells, 48 hours incubation; read-out: OCI-LY3 IL6 48 hour Inhibition EC50
Experimental: The following MALT-1 Cell Interleukin-6 (IL-6) AlphaLISA assay was conducted using a Perkin Elmer® IL-6 AlphaLISA® detection kit (PE AL223). The IL-6 detection assay is a homogeneous immunoassay that detects human IL-6 present in the cell culture medium in the MALT-1 dependent human ABC-DLBCL cell line, OCI-LY3. Compounds were pre-dispensed into Black 384w microtiter plates (Greiner, 781090) from 30 μM to 1.5 nM. Viable OCI-LY3 cells were then seeded on top of compounds at a seeding density of 50,000 cells/mL. Plates were then placed into 37° C. incubators for 48 hours. After 48 hours incubation, 2 μL of cell medium from each well was transferred into white ProxiPlates™ (PE 6008289). A fresh mix of AlphaLISA Acceptor beads (10 μg/mL) and Biotinylated IL-6 Antibody (1 nM) was made in AlphaLISA Immunoassay buffer and added to all wells (4 μL). The plates were incubated for 60 minutes at room temperature. Streptavidin donor beads (40 μg/mL) were prepared using the assay buffer and added to all wells (5 The plates were incubated for 30 minutes at room temperature and read using PE EnVision® reader. Results are shown in Table 3.

[4] = target: human MALT-1 protein (Homo sapiens (Human), UniProt Q9UDY8); experiment: MALT-1 Biochemical Assay (Quench-FRET enzyme assay); details: human MALT-1 6 nM, substrate 2 μM, 40 min preincubation
Description: A Quenched Fluorescence Resonance Energy Transfer (Quench-FRET) enzyme assay was used to test the ability of exemplary MALT-1 inhibitors Example 1 to Example 39 to inhibit the cleavage of a MALT1 specific quenched fluorescent substrate of sequence [TAMRA-PEG2-Leu-Val-Ser-Arg-Gly-Ala-Ala-Ser-PEG2-K(QSY7) by human MALT-1 protein; where TAMRA is 6-carboxytetramethylrhodamine, PEG2 is 2-(2-(2-aminoethoxy)ethoxyamide linker, QSY7 is a non-fluorescent quenching dye (Thermo-Fisher catalog #Q10193). The assay was performed by pre-dispensing compounds into 384 well Proxiplates™ (PE 6008289). Human MALT-1 (6 nM) was prepared using the assay buffer (25 mM HEPES pH 7.5, 1 mM ethylenediaminetetraacetic acid, 0.8 M sodium citrate, 0.005% Bovine serum albumin (BSA), 2 mM dithiothreitol (DTT)) and added to the compound plates. The plates were incubated 40 minutes at room temperature. The reaction was carried out by adding the substrate (2 μM) to the plates and incubating for 60 minutes at room temperature. A fluorescence readout was then measured using a PE EnVision® reader (Ex.535/Em.590). […] EC50 is defined as the half maximal effective concentration of compound to inhibit MALT-1 protease activity.

Chain of human MALT-1 protein (Q9UDY8 whole entry): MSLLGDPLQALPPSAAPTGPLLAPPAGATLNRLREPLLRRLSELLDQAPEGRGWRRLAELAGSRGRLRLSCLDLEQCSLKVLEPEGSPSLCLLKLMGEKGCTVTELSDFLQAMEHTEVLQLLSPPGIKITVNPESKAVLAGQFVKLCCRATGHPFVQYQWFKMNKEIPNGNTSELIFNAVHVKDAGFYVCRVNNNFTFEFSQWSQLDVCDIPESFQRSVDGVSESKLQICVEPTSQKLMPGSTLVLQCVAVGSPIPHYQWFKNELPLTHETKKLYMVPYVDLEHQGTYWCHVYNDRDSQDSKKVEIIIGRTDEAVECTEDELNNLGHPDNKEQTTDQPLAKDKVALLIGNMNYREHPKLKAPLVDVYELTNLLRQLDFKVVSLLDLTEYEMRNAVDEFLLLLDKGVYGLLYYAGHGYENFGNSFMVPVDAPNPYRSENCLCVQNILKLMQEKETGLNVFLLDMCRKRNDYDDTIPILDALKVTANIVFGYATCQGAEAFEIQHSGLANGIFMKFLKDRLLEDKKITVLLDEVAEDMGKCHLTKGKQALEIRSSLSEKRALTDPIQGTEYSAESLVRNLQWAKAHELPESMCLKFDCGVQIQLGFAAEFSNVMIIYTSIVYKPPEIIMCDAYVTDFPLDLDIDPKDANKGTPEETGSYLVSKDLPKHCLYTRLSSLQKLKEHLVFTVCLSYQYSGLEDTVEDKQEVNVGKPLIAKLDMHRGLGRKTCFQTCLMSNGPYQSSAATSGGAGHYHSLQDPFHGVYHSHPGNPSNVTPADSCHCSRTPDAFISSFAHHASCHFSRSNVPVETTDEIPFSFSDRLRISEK

| fold induction at 1 day, 10 µM [1] | CYP3A4 % of positive control (%) [2] | EC50 [3] [nM] | EC50 [4] [nM] | Compound |
| --- | --- | --- | --- | --- |
| 1.93 | (12.7) % | 140 | 135 | CCN(C(=O)C1CCS(=O)(=O)CC1)[C@@H](c1ccc(Nc2cnc3sc(C)nc3c2[C@H](C)OC)cc1)C(F)(F)F [Example 7, N-ethyl-1,1-dioxo-N-{(1S)-2,2,2-trifluoro-1-[4-({7-[(1S)-1-methoxyethyl]-2-methyl[1,3]thiazolo [5,4-b]pyridin-6-yl}amino)phenyl]ethyl}-1λ^6-thiane-4-carboxamide] |
| 1.53 | (9.23) % | 70 | 99 | CO[C@H](C)c1c(Nc2ccc([C@H](N(C)C(=O)C3CCS(=O)(=O)CC3)C(F)(F)F)cc2)cnc2sc(C)nc12 [Example 8, N-methyl-1,1-dioxo-N-{(1S)-2,2,2-trifluoro-1-[4-({7-[(1R)-1-methoxyethyl]-2-methyl[1,3]thiazolo [5,4-b]pyridin-6-yl}amino)phenyl]ethyl}-1λ^6-thiane-4-carboxamide] |
| 0.548 | (−5.95) % | 140 | 102 | CO[C@@H](C)c1c(Nc2c(F)cc([C@H](N(C)C(=O)C3CCS(=O)(=O)CC3)C(F)(F)F)cc2F)cnc2sc(C)nc12 [Example 9, N-{(1S)-1-[3,5-difluoro-4-({7-[(1S)-1-methoxyethyl]-2-methyl[1,3]thiazolo[5,4-b]pyridin-6-yl}amino)phenyl]-2,2,2-trifluoroethyl}-N-methyl-1,1-dioxo-1λ^6-thiane-4-carboxamide] |
| 2.59 | (20) % | 390 | 155 | CO[C@@H](c1c(Nc2ccc([C@H](N(C)C(=O)C3CCS(=O)(=O)CC3)C(F)(F)F)cc2)cnc2sc(C)nc12)C(F)(F)F [Example 11, N-methyl-1,1-dioxo-N-{(1S)-2,2,2-trifluoro-1-[4-({2-methyl-7-[(1S)-2,2,2-trifluoro-1-methoxyethyl][1,3]thiazolo[5,4-b]pyridin-6-yl}amino)phenyl]ethyl}-1λ^6-thiane-4-carboxamide] |

Further lines, the compound ahead of its results:

| Compound | fold induction at 1 day, 10 µM [1] | CYP3A4 % of positive control (%) [2] | EC50 [3] [nM] | EC50 [4] [nM] |
| --- | --- | --- | --- | --- |
| CO[C@H](C)c1c(Nc2ccc([C@@H](C(F)F)N(C)C(=O)C3CCS(=O)(=O)CC3)cc2)cnc2sc(C)nc12 [Example 12, N-{(1S)-2,2-difluoro-1-[4-({7-[(1R)-1-methoxyethyl]-2-methyl[1,3]thiazolo[5,4-b]pyridin-6-yl}amino)phenyl]ethyl}-N-methyl-1,1-dioxo-1λ^6-thiane-4-carboxamide] | 3.65 | (31) % | 200 | 61 |
| CO[C@@H](c1c(Nc2ccc([C@@H](C(F)F)N(C)C(=O)C3CCS(=O)(=O)CC3)cc2)cnc2sc(C)nc12)C(F)F [Example 13, N-{(1S)-1-[4-({7-[(1S)-2,2-difluoro-1-methoxyethyl]-2-methyl[1,3]thiazolo[5,4-b]pyridin-6-yl}amino)phenyl]-2,2-difluoroethyl}-N-methyl-1,1-dioxo-1λ^6-thiane-4-carboxamide] | 3.19 | (34.8) % | 420 | 193 |
| CO[C@H](c1c(Nc2ccc([C@@H](C(F)F)N(C)C(=O)C3CCS(=O)(=O)CC3)cc2)cnc2sc(C)nc12)C(F)(F)F [Example 14, N-{(1S)-2,2-difluoro-1-[4-({2-methyl-7-[(1R)-2,2,2-trifluoro-1-methoxyethyl][1,3]thiazolo[5,4-b]pyridin-6-yl}amino)phenyl]ethyl}-N-methyl-1,1-dioxo-1λ^6-thiane-4-carboxamide] | 2.71 | (27.3) % | 200 | 97 |
